Measurements from patent US5773449A, “Thioquinolone compounds which have useful pharmaceutical activity” (Zenyaku Kogyo Kabushiki Kaisha, priority 1994, dated 1998).
In brackets after ≈: the same amount, converted by molar mass.

How the values were obtained:
E.coli NIHJ JC-2 = assay: Antibacterial Test 2: agar plate dilution method (aerobic MIC method), E.coli; type: cell-based; settings: Escherichia coli, NIHJJC2, sensitive-disk agar medium-N
Protocol: (§1) Then, tested were antibacterial activities of the typical compounds of the present invention against gram-positive and-negative bacteria other than Hp. MICs of the typical compounds of the present invention were determined in substantial accordance with agar plate dilution method (aerobic MIC method) based on Standard method of The Japan Society of Chemotherapy.
(§2) The respective test compound were dissolved in dimethyl sulfoxide (DMSO) and serially diluted twofold. These diluted solutions of the compounds were respectively added to sensitive-disk agar medium-N (manufactured by NISSUI SEIYAKU) to prepare agar plates for determination with concentration of 0.05-100 μg/ml.
(§3) The below-mentioned strains freezingly conserved at -135° C. were thawed in a warm bath (40° C.), cultured in a sensitivity-determining bouillon at 37° C. for 18-20 hours, and then diluted with the above-mentioned medium to prepare about 1.0×10^6CFU/ml of bacterial solution.
(§4) Inoculation was made by 5 μl by multi-inoculator (manufactured by SAKUMA SEISAKUSHO). Culturing was made under the same conditions as those of the pre-culturing and the MIC (unit: μg/ml) was determined by observing whether the bacteria grew or not.

S.aureus FDA 209P = assay: Antibacterial Test 2: agar plate dilution method (aerobic MIC method), S.aureus; type: cell-based; settings: Staphylococcus aureus, FDA209P, sensitive-disk agar medium-N
Protocol: as §1, §2, §3, §4

B.subtilis PCI 219 = assay: Antibacterial Test 2: agar plate dilution method (aerobic MIC method), B.subtilis; type: cell-based; settings: Bacillus subtilis, PCI219, sensitive-disk agar medium-N
Protocol: as §1, §2, §3, §4

E.faecalis RIMD 3336001 = assay: Antibacterial Test 2: agar plate dilution method (aerobic MIC method), E.faecalis; type: cell-based; settings: Enterococcus faecalis, RIMD3336001, sensitive-disk agar medium-N
Protocol: as §1, §2, §3, §4

P.aeruginosa IFO 3445 = assay: Antibacterial Test 2: agar plate dilution method (aerobic MIC method), P.aeruginosa; type: cell-based; settings: Pseudomonas aeruginosa, IFO3445, sensitive-disk agar medium-N
Protocol: as §1, §2, §3, §4

M.luteus ATCC 9341 = assay: Antibacterial Test 2: agar plate dilution method (aerobic MIC method), M.luteus; type: cell-based; settings: Micrococcus luteus, ATCC9341, sensitive-disk agar medium-N
Protocol: as §1, §2, §3, §4

K.pneumoniae PCI 602 = assay: Antibacterial Test 2: agar plate dilution method (aerobic MIC method), K.pneumoniae; type: cell-based; settings: Klebsiella pneumoniae, PCI602, sensitive-disk agar medium-N
Protocol: as §1, §2, §3, §4

[1] = tested on: Helicobacter pylori standard strain ATCC 43526 (NCTC 11916); assay: Antibacterial test 1: agar plate dilution method (anaerobic MIC method) against Hp; type: cell-based; settings: 72 h; Helicobacter pylori ATCC 43526 (NCTC 11916); brucella agar + 7% horse blood, microaerobic, 37° C., 3 days
Protocol: Antibacterial test against Hp was performed in substantial accordance with agar plate dilution method (anaerobic MIC method) based on Standard method of The Japan Society of Chemotherapy to determine minimum inhibitory concentration (MIC) of the respective test compounds. The respective test compounds were sequentially dissolved in dimethyl sulfoxide (DMSO) and serially diluted twofold. […] Strain used for inoculation was Helicobacter pylori standard strain ATCC 43526 (NCTC 11916). For pre-culturing of bacteria to be inoculated, the above-mentioned strain freezingly conserved at -135° C. was thawed in a warm bath (40° C.), applied on a brucella agar medium containing 7% horse blood free from fibrin, and microaerobically cultured in a jar for anaerobic bacteria at 37° C. for 3 days. The solution of bacteria to be inoculated was prepared by collecting colonies grown on the culture medium and suspending the same in the brucella broth.

peptic ulcer = settings: H2-blocker / proton-pump inhibitor; cited from earlier work

| Compound | MIC (E.coli NIHJ JC-2) | MIC (S.aureus FDA 209P) | MIC (B.subtilis PCI 219) | MIC (E.faecalis RIMD 3336001) | MIC (P.aeruginosa IFO 3445) | MIC (M.luteus ATCC 9341) | MIC (K.pneumoniae PCI 602) | MIC [1] | cure rate (peptic ulcer) |
| --- | --- | --- | --- | --- | --- | --- | --- | --- | --- |
| CS(=O)(=O)Oc1ccc2c(=S)cc[nH]c2c1 [compound 28, 7-Methanesulfonyloxyquinoline-4(1H)-thione] | > 100 µg/mL | 25 µg/mL (≈ 97.9 µM) | > 100 µg/mL | 50 µg/mL (≈ 196 µM) | > 100 µg/mL | 50 µg/mL (≈ 196 µM) | > 100 µg/mL | 0.39 µg/mL | – |
| S=c1cc[nH]c2cc(CCc3ccccc3)ccc12 [compound 31, 7-Phenethylquinoline-4(1H)-thione] | > 100 µg/mL | > 100 µg/mL | > 100 µg/mL | > 100 µg/mL | > 100 µg/mL | > 100 µg/mL | > 100 µg/mL | 0.39 µg/mL | – |
| S=c1cc[nH]c2c3c(ccc12)CCCC3 [compound 40, 7,8,9,10-Tetrahydrobenzo[h]quinoline-4(1H)-thione] | > 100 µg/mL | > 100 µg/mL | > 100 µg/mL | > 100 µg/mL | > 100 µg/mL | > 100 µg/mL | > 100 µg/mL | 0.2 µg/mL | – |
| Cc1cccc2c(=S)cc[nH]c12 [compound 41, 8-Methylquinoline-4(1H)-thione] | > 100 µg/mL | > 100 µg/mL | > 100 µg/mL | > 100 µg/mL | > 100 µg/mL | > 100 µg/mL | > 100 µg/mL | 0.78 µg/mL | – |
| CC1(C)S[C@@H]2[C@H](NC(=O)[C@H](N)c3ccc(O)cc3)C(=O)N2[C@H]1C(=O)O [amoxicillin, reference compound] | 3.13 µg/mL (≈ 8.57 µM) | 0.1 µg/mL (≈ 0.274 µM) | 0.2 µg/mL (≈ 0.547 µM) | 0.2 µg/mL (≈ 0.547 µM) | > 100 µg/mL | ≤ 0.05 µg/mL | 50 µg/mL (≈ 137 µM) | 0.05 µg/mL | – |
| CCCCCCCCCCCCc1ccc2c(=S)cc[nH]c2c1 [compound 30, 7-Dodecylquinoline-4(1H)-thione] | > 100 µg/mL | > 100 µg/mL | > 100 µg/mL | > 100 µg/mL | > 100 µg/mL | 100 µg/mL (≈ 303 µM) | > 100 µg/mL | 1.56 µg/mL | – |
| S=c1cc[nH]c2cc(N3CCOCC3)ccc12 [compound 36, 7-Morpholinoquinoline-4(1H)-thione] | > 100 µg/mL | 100 µg/mL (≈ 406 µM) | 100 µg/mL (≈ 406 µM) | > 100 µg/mL | > 100 µg/mL | 100 µg/mL (≈ 406 µM) | > 100 µg/mL | 0.39 µg/mL | – |
| CCCCCCOc1ccc2c(=S)cc[nH]c2c1 [compound 24, 7-n-Hexyloxyquinoline-4(1H)-thione] | > 100 µg/mL | > 100 µg/mL | > 100 µg/mL | > 100 µg/mL | > 100 µg/mL | > 100 µg/mL | > 100 µg/mL | 1.56 µg/mL | – |
| CCOc1ccc2c(=S)cc[nH]c2c1 [compound 22, 7-Ethoxyquinoline-4(1H)-thione] | > 100 µg/mL | > 100 µg/mL | > 100 µg/mL | > 100 µg/mL | > 100 µg/mL | > 100 µg/mL | > 100 µg/mL | 3.13 µg/mL | – |
| S=c1cc[nH]c2c1ccc1ccccc12 [compound 39, Benzo[h]quinoline-4(1H)-thione] | > 100 µg/mL | > 100 µg/mL | > 100 µg/mL | > 100 µg/mL | > 100 µg/mL | > 100 µg/mL | > 100 µg/mL | 0.39 µg/mL | – |
| S=c1cc[nH]c2cc(N3CCNCC3)ccc12 [compound 54, 7-(1-Piperazinyl)quinoline-4(1H)-thione] | > 100 µg/mL | 100 µg/mL (≈ 408 µM) | > 100 µg/mL | > 100 µg/mL | > 100 µg/mL | > 100 µg/mL | > 100 µg/mL | 3.13 µg/mL | – |
| CC(C)Sc1ccc2c(=S)cc[nH]c2c1 [compound 49, 7-Isopropylthioquinoline-4(1H)-thione] | > 100 µg/mL | > 100 µg/mL | > 100 µg/mL | > 100 µg/mL | > 100 µg/mL | > 100 µg/mL | > 100 µg/mL | 0.39 µg/mL | – |
| Cc1c(OCC(F)(F)F)ccnc1C[S+]([O-])c1nc2ccccc2[nH]1 (centres unmarked) [lansoprazole, reference compound] | > 100 µg/mL | > 100 µg/mL | > 100 µg/mL | > 100 µg/mL | > 100 µg/mL | > 100 µg/mL | > 100 µg/mL | 12.5 µg/mL | – |
| S=c1cc[nH]c2cc(CSc3nc4ccccc4[nH]3)ccc12 [compound 50, 7-(2-Benzimidazolyl)thiomethylquinoline-4(1H)-thione] | > 100 µg/mL | > 100 µg/mL | > 100 µg/mL | > 100 µg/mL | > 100 µg/mL | > 100 µg/mL | > 100 µg/mL | 1.56 µg/mL | – |
| CN/C(=N/CCSCc1nc[nH]c1C)NC#N [cimetidine] | – | – | – | – | – | – | – | – | 80-90% |
| CC(=O)OCc1ccc2c(=S)cc[nH]c2c1 [compound 29, 7-Acetoxymethylquinoline-4(1H)-thione] | > 100 µg/mL | 25 µg/mL (≈ 107 µM) | 100 µg/mL (≈ 429 µM) | 50 µg/mL (≈ 214 µM) | > 100 µg/mL | 50 µg/mL (≈ 214 µM) | > 100 µg/mL | 0.78 µg/mL | – |
| COc1ccc2[nH]c([S+]([O-])Cc3ncc(C)c(OC)c3C)nc2c1 (centres unmarked) [omeprazole] | – | – | – | – | – | – | – | – | 80-90% |
